Values after ≈ are worked out from the molar mass of the structure shown. Like-named read-outs stand apart in the source and are kept apart here.
Experiments:
[1] = system: HepG2 cells; assay: Biotransformation experiment in HepG2 (concentration in cells and exposure medium); conditions: for Biotransformation ratio between metabolites and PHE, cells / Biotransformation ratio between metabolites and PHE, medium: HepG2, 15 mg·L^−1 PHE; for Concentration in cells, samples (n = 3) / Concentration in medium, samples / Concentration in cells, samples: metabolites; for Biotransformation ratio between metabolites and BDE-47, cells / Biotransformation ratio between metabolites and BDE-47, medium: HepG2, 20 mg·L^−1 BDE-47, 48 h
[2] = MTT cell viability assay; type: cell-based; conditions: human
Method: (§1) Cell viability was determined by MTT assay. First, 10,000 cells/well were cultured in 96-well plates for 24 h at 37 °C and 5% CO2. After that time, the culture medium was replaced with a culture medium containing different concentrations (0–70 mg·L^−1) of PHE and BDE-47 for 48 h of exposure under the same incubated conditions. After that, 20 μL MTT solution (5 mg·mL^−1 diluted in PBS) was added and incubated for the following 4 h. Viable cellular metabolic reduction of MTT produced formazan crystals, which were dissolved in 100 μL sterile DMSO and quantified with absorbance measurement at 595 nm in a Multiskan Sky High ([…] Thermo Fisher). The cell viability was estimated by using Eq. (1). 1 %Viability=Aexp-Ablank/Acontrol-Ablank∙100 where Acontrol, Aexp, and Ablank are the mean absorbance value (6 replicates) of the control group (cells without pollutant), experimental group, and blank group (only cell culture medium), respectively. Five independent assays were carried out with the same conditions. The results have been subsequently used for the design of the biotransformation experiment.
(§2) Cell viability of each concentration was estimated by using Eq. (1) according to the absorbance values obtained in the MTT assay. The dose–response values were fitted by Origin Pro 2021 with a polynomial equation (shown in Fig. 3) from which the LC value was estimated. LC50 (50% viability) and LC30 (70% viability) were estimated by the polynomial fitting of the mean cell viability data obtained from three independent experiments. Cell viability in HepG2 decreased by 30% at 22 mg·L^−1 PHE and 38 mg·L^−1 BDE-47 and up to 50% at 38 mg·L^−1 PHE and 46 mg·L^−1 BDE-47. […] The calculated LC30 values have been subsequently used for the design of the biotransformation experiments.

[3] = system: HepG2 cells; assay: MTT cell viability assay; type: cell-based; conditions: human, 48 h
Method: as §1, §2

[4] = system: HepG2 cells; assay: Plastic and glass plate exposure test (loss and cell uptake of compound); type: in vitro ADME
Method: Exposure of HepG2 cells (3 replicates) was performed by initially seeding approximately 2·10^6 cells in glass P100 plates and being incubated for 24 h at 37 °C (5% CO2) with 10 mL of DMEM supplemented with 10% FBS. […] The nominal exposure concentration was estimated by the previous MTT viability study, in which, more than 70% of the cells were alive at the end of the test (lethal concentration 30, LC30) to ensure good metabolizing capacity. Part of the contaminated medium was stored to determine the concentration at time 0 of exposure (“t = 0 h”). In addition, to consider possible analyte loss, a plate of control cells without pollutant (“blank”) and a plate with contaminated medium without cells (“no cells”) were incubated under the same conditions. […] Since the determination of PHE is carried out by LC-FL and its metabolites by GC–MS, the cell pellet was divided in half for each analysis. For this purpose, the adherent cells were lifted in suspension by trypsinization, and the total volume of the homogenous cell suspension was divided in half. Then, the resulting cell pellet from each fraction was collected by centrifuging at 1500 rpm for 5 min and removing the medium. However, for the determination of BDE-47 and its metabolites, the complete pellet obtained is analyzed because a simultaneous extraction is performed for both analyses. The obtained pellet was dried under a gentle stream of nitrogen, weighed on a precision analytical balance (± 0.00001 g), and stored at − 4 °C until analysis. Three independent assays were carried out with the same conditions, each with 3 replicates (plates) of the same concentration.
A major problem in in vitro cell assays is the loss of compound during the exposure process to estimate the effective concentration available to the cell and to correctly assess the toxicity and metabolization kinetics of POPs, as most of them are hydrophobic and semi-volatile. Firstly, when concentration was determined in the exposure and no cells medium samples at the end of the test (48 h) using plastic Petri dishes, a loss of 89% and 84% compared to the t = 0 h sample was found in the cells and no cells sample respectively (Table 1). This loss, similar to that found in previous studies, is mainly explained by absorption into polystyrene, the main component of in vitro culture plates or evaporation processes because these compounds have a Henry law constant (KH) between 1 and 10 Pa·m^3·mol^−1 [11] (7.90 Pa·m^3·mol^−1 for PHE at 35 °C [13] and 3.78 Pa·m^3·mol^−1 for BDE-47 at 40 °C [40]). The remaining concentration in the medium that had not been lost by evaporation or absorbed into the cells was retained in the protein serum. […] A fraction dissolved in the medium accessible to the cells of 3.5% for anthracene (log Kow 4.5) was obtained introducing the conditions of this work into the chemical partitioning model developed by Fischer et al.. […] Therefore, it should be considered to avoid the use of plastic in tests that requires P100 plates with a very high surface area/volume ratio of the medium when studying neutral chemicals with a log Kow > 3, as is the case of PHE (log Kow 4.46 [39]) and BDE-47 (log Kow 6.81 [26]).
Using glass plates, a loss of 47% and 26% for cells and no cells samples, respectively, was found at the end of the assay (48 h) (Table 1), and the concentration absorbed by the cells increased from 4 ± 1 to 18 ± 3%. For BDE-47, a loss of only 14% because of volatilization and an absorbed concentration of 24 ± 2% resulted using a glass plate, as BDE-47 is less volatile and more hydrophobic than PHE, favoring cell uptake. Birch et al. calculated a cell-free fraction of 13% for PHE in HepG2 cells with 10% of FBS in the medium considering the evaporation losses using glass vials. […]

[5] = system: HepG2 cells; conditions: 15 mg·L^−1
[6] = at 35 °C; cited from earlier work
[7] = cited from earlier work
[8] = system: HepG2; conditions: HepG2 at 48 h of PHE exposure, cited from earlier work
[9] = design: method as in PMID 18318592; conditions: cited from earlier work
[10] = system: HepG2 cells; design: method as in PMID 31426631; conditions: 10% FBS in medium, evaporation losses considered, glass vials; cited from earlier work
[11] = HepG2 exposed to 15 mg·L^−1 PHE, 48 h
[12] = HepG2 exposed to 20 mg·L^−1 BDE-47, 48 h

Oc1cccc2ccc3ccccc3c12 [4-OH-PHE]
Biotransformation ratio between metabolites and PHE, cells ([1]; 48 h): 0.05
Biotransformation ratio between metabolites and PHE, medium ([1]; 48 h): 0.16
Concentration in cells, samples (n = 3) [1, 11]: 260 ± 85 ng/g
Concentration in medium, samples [1, 11]: 5 ± 1 ng/mL

Oc1ccc2c(ccc3ccccc32)c1 [2-OH-PHE]
Biotransformation ratio between metabolites and PHE, cells ([1]; 48 h): 0.06
Biotransformation ratio between metabolites and PHE, medium ([1]; 48 h): 0.15
Concentration in cells, samples (n = 3) [1, 11]: 284 ± 92 ng/g
Concentration in medium, samples [1, 11]: 5.2 ± 0.9 ng/mL

Oc1c(Br)ccc(Oc2ccc(Br)cc2Br)c1Br [3-OH-BDE-47]
Biotransformation ratio between metabolites and BDE-47, cells [1]: 0.01
Biotransformation ratio between metabolites and BDE-47, medium [1]: 0.04
Concentration in cells, samples [1, 12]: 0.21 ± 0.10 ng/g
Concentration in medium, samples [1, 12]: 4.3 ± 0.2 ng/mL

COc1cc(Oc2ccc(Br)cc2Br)c(Br)cc1Br [5-MeO-BDE-47]
Biotransformation ratio between metabolites and BDE-47, cells [1]: 0.03
Biotransformation ratio between metabolites and BDE-47, medium [1]: 0.01
Concentration in cells, samples [1, 12]: 0.12 ± 0.02 ng/g
Concentration in medium, samples [1, 12]: 1.2 ± 0.9 ng/mL

COc1c(Br)ccc(Oc2ccc(Br)cc2Br)c1Br [3-MeO-BDE-47]
metabolite detection after exposure (in words) [1, 12]: No quantifiable amounts

c1ccc2c(c1)ccc1ccccc12 [PHE, phenanthrene]
CC50 at 48 h [2]: 38 µg/mL (≈ 213 µM)
LC30 (70% viability; cell viability decreased by 30%) [3]: 22 µg/mL (≈ 123 µM)
Conc. PHE Glass plate exposure ([4]; 0 h): 4370 ng/mL
Conc. PHE Plastic plate exposure ([4]; 0 h): 5570 ng/mL
Conc. PHE Glass plate exposure ([4]; 24 h): 3690 ng/mL
Conc. PHE Glass plate exposure ([4]; 48 h): 3160 ng/mL
Conc. PHE Plastic plate exposure ([4]; 48 h): 880 ng/mL
loss at the end of the assay ([4]; 48 h): 26%
loss compared to the t = 0 h sample ([4]; 48 h): 84%
concentration absorbed by the cells ([4]; human, 48 h): 18 ± 3%
loss at the end of the assay ([4]; human, 48 h): 47%
loss compared to the t = 0 h sample ([4]; human, 48 h): 89%
taken up by the cells ([4]; human, 48 h): 4 ± 1%
Concentration in medium, t = 0 h ([5]; 0 h): 12000 ± 1000 ng/mL
Concentration in medium, no cells ([5]; 48 h): 8000 ± 2000 ng/mL
Concentration in cells, samples (n = 3) ([5]; human, 48 h): 521 ± 144 µg/g
Concentration in medium, samples ([5]; human, 48 h): 5700 ± 700 ng/mL
Henry law constant (KH) [6]: 7.90 Pa·m^3·mol^−1
log Kow [7]: 4.46
LC50 [8]: 20.3 µg/mL (≈ 114 µM)
CC50 ([8]; read-out: LC50 (the source's name)): 114 µM
absorption when glass is used ([9]; glass): 2%
initial concentration absorbed on polystyrene ([9]; polystyrene): 94%
cell-free fraction [10]: 13%
